In patent US11518754B2, “Radiolabeled pharmaceuticals and methods of making and using same” (YALE UNIVERSITY, priority 2017, dated 2022):

How the values were obtained:
SV2A = SV2A (Macaca mulatta, UniProt H9EQH8); test: PET imaging studies in rhesus monkeys; details: for Binding potential (BPND): from VT, centrum semiovale as reference region; for Displacement of radiotracer binding by levetiracetam: levetiracetam 30 mg/kg i.v. infused 60 or 90 min post injection of the radiotracer; for Uptake of radiotracer in blocking studies: levetiracetam (30 mg/kg) or UCB-J (150 μg/kg) i.v. 10 min before radiotracer injection
Chain of SV2A (H9EQH8 1-742): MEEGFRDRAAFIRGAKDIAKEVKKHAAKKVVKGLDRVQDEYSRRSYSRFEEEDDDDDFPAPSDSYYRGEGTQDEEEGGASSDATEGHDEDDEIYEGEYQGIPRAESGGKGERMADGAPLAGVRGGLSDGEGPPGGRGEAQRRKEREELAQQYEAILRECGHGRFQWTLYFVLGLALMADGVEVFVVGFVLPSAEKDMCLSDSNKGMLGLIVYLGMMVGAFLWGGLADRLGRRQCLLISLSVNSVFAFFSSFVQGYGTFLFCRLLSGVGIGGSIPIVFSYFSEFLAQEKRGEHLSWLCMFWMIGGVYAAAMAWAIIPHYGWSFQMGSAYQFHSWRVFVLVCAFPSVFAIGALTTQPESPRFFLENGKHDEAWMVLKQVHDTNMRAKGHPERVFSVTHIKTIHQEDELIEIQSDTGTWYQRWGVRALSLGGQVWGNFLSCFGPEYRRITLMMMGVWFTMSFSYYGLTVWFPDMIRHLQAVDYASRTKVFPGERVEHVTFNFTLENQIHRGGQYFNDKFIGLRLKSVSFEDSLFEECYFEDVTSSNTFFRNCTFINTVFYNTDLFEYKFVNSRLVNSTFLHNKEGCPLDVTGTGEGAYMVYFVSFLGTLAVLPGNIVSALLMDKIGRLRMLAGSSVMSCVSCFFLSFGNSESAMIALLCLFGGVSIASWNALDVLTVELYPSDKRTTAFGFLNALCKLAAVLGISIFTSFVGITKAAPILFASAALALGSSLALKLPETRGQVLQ
Protocol: (§1) Experiments were performed in rhesus monkeys (Macaca mulatta). Rhesus monkeys were sedated using intramuscular (i.m.) injection of ketamine and glycopyrrolate approximately 2 hours before the PET scan and anesthesia was maintained with isoflurane (1.5%-2.5%) for the duration of the experiments. Baseline PET scans were obtained after intravenous (i.v.) injection of ^11C-3, ^18F-3, ^18F-4, ^18F-5, ^18F-10, ^18F-11, or ^18F-12.
(§2) Arterial blood samples were collected during the PET scans to calculate the plasma input function and to determine the unmetabolized parent fraction using the automatic column-switching HPLC system. Plasma free fraction (fp) was measured in triplicate using the ultrafiltration method.
(§3) PET scans of the brain were acquired using the FOCUS 220 PET scanner (Siemens Preclinical Solutions) with a reconstructed image resolution of approximately 1.5 mm. After a transmission scan, the radioligand was injected i.v. as a 3 min slow bolus by an infusion pump (PHD 22/2000; Harvard Apparatus). List-mode data were acquired for 120-180 min and binned into sinograms with an applicable number of frames. Scan data were reconstructed with a Fourier rebinning/filtered backprojection algorithm with corrections for attenuation, scanner normalization, radiation scatter, and randoms. Regions of interest were manually delineated on a single representative anatomic rhesus monkey MR image registered to a template image. The regions used in this study were amygdala, brain stem, caudate, centrum semiovale, cerebellum, cingulate cortex, frontal cortex, globus pallidus, insular cortex, nucleus accumbens, occipital cortex, pons, putamen, temporal cortex, and thalamus. Registration parameters were obtained to apply the regions of interest to individual PET scans, and regional time-activity curves were generated. Regional time-activity curves of the brain were analyzed with the 1-tissue-(1T) compartment model. Fit quality was compared with the 2-tissue model and the multilinear analysis method to calculate VT.
(§4) Typical injected radioactivity amount was 0.5-5 mCi per injection, with typical injected mass amount of 1-10 μg.
(§5) Specific binding to SV2A was further examined for ^11C-3, ^18F-3, and ^18F-11 in blocking studies, where levetiracetam or UCB-J ((R)-3) was i.v. infused before injection of the radiotracers.

[1] = Plasma free fraction (fp) by ultrafiltration method; type: in vitro ADME, rhesus monkeys (Macaca mulatta); details: plasma (from arterial blood samples), rhesus monkey plasma
[2] = PET imaging studies in rhesus monkeys; details: rhesus monkey, in vivo, Distribution volume (VT), 1T model
Protocol: as §1, §2, §3, §4, §5

[3] = rhesus monkey brain after i.v. injection

Row | Structure (SMILES) | Binding potential (BPND) (SV2A; Amygdala) | Binding potential (BPND) (SV2A; Brainstem) | Binding potential (BPND) (SV2A; Caudate nucleus) | Binding potential (BPND) (SV2A; Cerebellum) | Binding potential (BPND) (SV2A; Cingulate cortex) | Binding potential (BPND) (SV2A; Frontal cortex) | Binding potential (BPND) (SV2A; Globus pallidus) | Binding potential (BPND) (SV2A; Hippocampus) | Binding potential (BPND) (SV2A; Insular cortex) | Binding potential (BPND) (SV2A; Nucleus accumbens) | Binding potential (BPND) (SV2A; Occipital cortex) | Binding potential (BPND) (SV2A; Pons) | Binding potential (BPND) (SV2A; Putamen) | Binding potential (BPND) (SV2A; Temporal cortex) | Binding potential (BPND) (SV2A; Thalamus) | Displacement of radiotracer binding by levetiracetam (SV2A) | time to SUV peak in gray matter regions (SV2A; rhesus monkey, in vivo, iv) | fraction unbound [1] | time to SUV peak in gray matter regions (SV2A; [3]) | Kp ([2]; Amygdala) | other results
1 | Cc1cnccc1CN1CC(c2cc(F)c(F)c(F)c2)CC1=O (stereo not shown) [^18F-3, 1-((3-methylpyridin-4-yl)methyl)-4-(3,4,5-trifluorophenyl) pyrrolidin-2-one] | 1.65 ± 1.04 | 0.84 ± 0.28 | 2.54 ± 0.60 | 1.88 ± 0.42 | 4.04 ± 0.38 | 3.90 ± 0.54 | 1.08 ± 0.59 | 1.99 ± 0.75 | 3.51 ± 0.56 | 3.85 ± 0.57 | 3.35 ± 0.27 | 0.80 ± 0.26 | 2.62 ± 0.46 | 3.14 ± 0.41 | 2.53 ± 1.18 | reduced the binding of these tracers to a significant extent | slower | 0.42 ± 0.06 | – | – | Uptake of radiotracer in blocking studies (SV2A): reduced to background levels
2 | O=C1CC(c2cccc(F)c2)CN1Cc1ccncc1 (stereo not shown) [^18F-12, 4-(3-Fluorophenyl)-1-(pyridin-4-ylmethyl)pyrrolidin-2-one] | 0.04 | −0.06 | 0.75 | 0.25 | 1.45 | 1.28 | 0.29 | 0.44 | 1.09 | 1.18 | 0.90 | −0.09 | 0.86 | 0.95 | 0.42 | reduced the binding of these tracers to a significant extent | ≤ 10 min | 0.61 | – | – | –
3 | Cc1cnccc1CN1CC(c2cc(F)cc(F)c2)CC1=O (stereo not shown) [^18F-5, 4-(3,5-Difluorophenyl)-1-((3-methylpyridin-4-yl)methyl)pyrrolidin-2-one] | 1.70 ± 1.51 | 0.59 ± 0.57 | 2.09 ± 1.37 | 2.16 ± 0.15 | 4.49 ± 0.50 | 4.26 ± 0.57 | 1.04 ± 0.09 | 2.36 ± 0.51 | 4.16 ± 0.42 | 3.09 ± 2.04 | 3.75 ± 0.11 | 0.80 ± 0.03 | 3.03 ± 0.55 | 3.60 ± 0.22 | 3.08 ± 0.96 | reduced the binding of these tracers to a significant extent | – | 0.42 ± 0.03 | slower | 20.5 ± 6 | Kp ([2]; Brainstem): 15 ± 4; Kp ([2]; Caudate nucleus): 31.9 ± 4.8; Kp ([2]; Centrum semiovale): 8.3 ± 2.4; Kp ([2]; Cerebellum): 26.1 ± 6.5; Kp ([2]; Cingulate cortex): 45 ± 9.2; Kp ([2]; Frontal cortex): 43 ± 8.1; Kp ([2]; Globus pallidus): 19.3 ± 2.4; Kp ([2]; Hippocampus): 27.3 ± 4; Kp ([2]; Insular cortex): 42.3 ± 9.1; Kp ([2]; Nucleus accumbens): 41.9 ± 7.8; Kp ([2]; Occipital cortex): 39.3 ± 10.7; Kp ([2]; Pons): 14.9 ± 4.1; Kp ([2]; Putamen): 32.8 ± 5.2; Kp ([2]; Temporal cortex): 37.9 ± 9.4; Kp ([2]; Thalamus): 32.7 ± 1.9
4 | Cc1cnccc1CN1CC(c2cccc(F)c2)CC1=O (stereo not shown) [^18F-11, 4-(3-Fluorophenyl)-1-((3-methylpyridin-4-yl)methyl)pyrrolidin-2-one] | 1.05 ± 0.29 | 0.53 ± 0.42 | 2.29 ± 0.88 | 1.59 ± 0.76 | 3.49 ± 1.52 | 3.29 ± 1.40 | 1.13 ± 0.61 | 1.58 ± 0.59 | 3.00 ± 1.21 | 3.12 ± 1.26 | 2.90 ± 1.50 | 0.46 ± 0.51 | 2.21 ± 0.89 | 2.63 ± 1.33 | 2.18 ± 0.77 | reduced the binding of these tracers to a significant extent | – | 0.42 ± 0.02 | ≤ 10 min | 8.7 ± 2.4 | Uptake of radiotracer in blocking studies (SV2A): reduced to background levels; Kp ([2]; Brainstem): 6.6 ± 2.9; Kp ([2]; Caudate nucleus): 13.2 ± 2.6; Kp ([2]; Centrum semiovale): 4.4 ± 1.5; Kp ([2]; Cerebellum): 10.8 ± 2.6; Kp ([2]; Cingulate cortex): 18.2 ± 2.2; Kp ([2]; Frontal cortex): 17.4 ± 2.2; Kp ([2]; Globus pallidus): 8.8 ± 1.8; Kp ([2]; Hippocampus): 10.7 ± 2.8; Kp ([2]; Insular cortex): 16.8 ± 2.6; Kp ([2]; Nucleus accumbens): 16.4 ± 2.9; Kp ([2]; Occipital cortex): 15.7 ± 2.7; Kp ([2]; Pons): 6.4 ± 3.5; Kp ([2]; Putamen): 13.6 ± 2.3; Kp ([2]; Temporal cortex): 14.7 ± 2.5; Kp ([2]; Thalamus): 13.2 ± 2.1
5 | Cc1cnccc1CN1CC(c2ccc(F)c(F)c2)CC1=O (stereo not shown) [^18F-4, 4-(3,4-difluorophenyl)-1-((3-methylpyridin-4-yl)methyl)pyrrolidin-2-one] | 0.66 | 0.75 | 1.72 | 0.55 | 2.60 | 2.51 | 0.95 | 1.35 | 2.41 | 2.47 | 2.30 | 0.73 | 1.86 | 2.21 | 1.65 | reduced the binding of these tracers to a significant extent | ≤ 10 min | 0.41 | – | – | –
6 | O=C1CC(c2cc(F)c(F)c(F)c2)CN1Cc1ccncc1F (stereo not shown) [^18F-10, 1-((3-fluoropyridin-4-yl)methyl)-4-(3,4,5-trifluorophenyl)pyrrolidin-2-one] | −0.03 | 0.01 | 0.37 | 0.22 | 0.59 | 0.46 | 0.14 | 0.12 | 0.48 | 0.43 | 0.53 | 0.04 | 0.39 | 0.39 | 0.19 | – | – | 0.52 | ≤ 10 min | 9.8 | Kp ([2]; Brainstem): 10.2; Kp ([2]; Caudate nucleus): 13.8; Kp ([2]; Centrum semiovale): 10.1; Kp ([2]; Cerebellum): 12.3; Kp ([2]; Cingulate cortex): 16; Kp ([2]; Frontal cortex): 14.7; Kp ([2]; Globus pallidus): 11.5; Kp ([2]; Hippocampus): 11.3; Kp ([2]; Insular cortex): 14.9; Kp ([2]; Nucleus accumbens): 14.4; Kp ([2]; Occipital cortex): 15.5; Kp ([2]; Pons): 10.5; Kp ([2]; Putamen): 14; Kp ([2]; Temporal cortex): 14; Kp ([2]; Thalamus): 12
